Results taken from patent publication US11897881B1, “Substituted pyrido[3,4-b]indole-3-carboxylic acids as CK2 inhibitors” (KING FAISAL UNIVERSITY, priority 2023, dated 2024).

Columns and labels:
PC3 (prostate) = experiment: In vitro cytotoxic activity assay (MTT), PC3; format: cell-based; conditions: Homo sapiens, Prostate cell; PC3 (prostate) cells, exposed for 96 hours; read-out: IC50, 50% inhibition of cell proliferation
Method: (§1) Compounds 1-15 were screened for their in vitro cytotoxic activity utilizing a 3-(4,5-dimethyl-thiazol-2-yl)-2,5-diphenyltetrazolium bromide (MTT) assay against selected cancer human cell lines consisting of PC3 (prostate), HCT116 (colon), A375 (melanoma), H1299 (lung), MIAPaCa-2 (pancreas), HL60 (leukemia), MCF7 (breast), MDA-MB-231 (breast) (T. Mosmann, J. Immunol. Meth., 1983, 65, 55-63). The cells were cultured at 37° C. in RMPI1640 medium supplemented with 10% fetal bovine serum, 50 IU/mL penicillin, and 50 μg/mL streptomycin in a 5% CO2 incubator. All cells were sub-cultured 3 times/week by trypsinisation. Viable cells were seeded and allowed to adhere for 12 h before a test drug was added in 96-well plates at an initial density of 1.0×10^5 cells/mL. Tumour cell lines were separately exposed to various concentrations of the tested compounds followed by incubation at a temperature of 37° C. during 96 h inside a medium of fresh RMPI 1640. Cells were subsequently incubated at 37° C. using MTT at 0.5 mg/mL during 4 h. After removal of supernatant, formazan crystals were dissolved in isopropanol and the optical density was measured at 570 nm. CX-4945 was used as a positive control.

HCT116 (colon) = experiment: In vitro cytotoxic activity assay (MTT), HCT116; format: cell-based; conditions: Homo sapiens, HCT-116; HCT116 (colon) cells, exposed for 96 hours; read-out: IC50, 50% inhibition of cell proliferation
Method: as §1

A375 (melanoma) = experiment: In vitro cytotoxic activity assay (MTT), A375; format: cell-based; conditions: Homo sapiens, A-375; A375 (melanoma) cells, exposed for 96 hours; read-out: IC50, 50% inhibition of cell proliferation
Method: as §1

H1299 (lung) = experiment: In vitro cytotoxic activity assay (MTT), H1299; format: cell-based; conditions: Homo sapiens, NCI-H1299; H1299 (lung) cells, exposed for 96 hours; read-out: IC50, 50% inhibition of cell proliferation
Method: as §1

MIAPaCa-2 (pancreas) = experiment: In vitro cytotoxic activity assay (MTT), MIAPaCa-2; format: cell-based; conditions: Homo sapiens, MIA PaCa-2; MIAPaCa-2 (pancreas) cells, exposed for 96 hours; read-out: IC50, 50% inhibition of cell proliferation
Method: as §1

HL60 (leukemia) = experiment: In vitro cytotoxic activity assay (MTT), HL60; format: cell-based; conditions: Homo sapiens, HL-60; HL60 (leukemia) cells, exposed for 96 hours; read-out: IC50, 50% inhibition of cell proliferation
Method: as §1

MCF7 (breast) = experiment: In vitro cytotoxic activity assay (MTT), MCF7; format: cell-based; conditions: Homo sapiens; MCF7 (breast) cells, exposed for 96 hours; read-out: IC50, 50% inhibition of cell proliferation
Method: as §1

MDA-MB-231 (breast) = experiment: In vitro cytotoxic activity assay (MTT), MDA-MB-231; format: cell-based; conditions: Homo sapiens; MDA-MB-231 (breast) cells, exposed for 96 hours; read-out: IC50, 50% inhibition of cell proliferation
Method: as §1

[1] = target: T1, recombinant human CK2 (RRββ-holoenzyme) (Homo sapiens, UniProt P68400); experiment: CK2 Kinase Assay (33P-ATP, filter plate); format: biochemical; conditions: final ATP concentration 15 μM, 10 min at 30° C., eight concentrations; read-out: protein kinase CK2 IC50
T1 construct: purchased Millipore
T1 sequence (P68400 whole entry): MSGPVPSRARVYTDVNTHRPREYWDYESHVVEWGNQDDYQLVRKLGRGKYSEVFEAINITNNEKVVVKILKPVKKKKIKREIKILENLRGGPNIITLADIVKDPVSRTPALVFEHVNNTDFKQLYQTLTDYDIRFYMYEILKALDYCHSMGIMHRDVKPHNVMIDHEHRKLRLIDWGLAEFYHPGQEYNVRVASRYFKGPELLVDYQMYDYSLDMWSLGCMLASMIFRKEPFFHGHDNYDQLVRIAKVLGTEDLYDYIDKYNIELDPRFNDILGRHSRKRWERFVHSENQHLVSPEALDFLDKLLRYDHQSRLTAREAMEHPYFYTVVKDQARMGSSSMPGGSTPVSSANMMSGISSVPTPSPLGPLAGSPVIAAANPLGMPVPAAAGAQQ
T1 sequence (P67870 whole entry partner): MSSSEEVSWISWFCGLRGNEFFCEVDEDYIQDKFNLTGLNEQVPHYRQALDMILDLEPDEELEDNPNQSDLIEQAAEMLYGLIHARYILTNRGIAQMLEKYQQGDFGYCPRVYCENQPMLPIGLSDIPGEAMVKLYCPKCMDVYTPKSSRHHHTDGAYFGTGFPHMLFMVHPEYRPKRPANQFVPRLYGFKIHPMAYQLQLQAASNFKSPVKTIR
Method: CK2 Kinase Assay was conducted using the protocol as described in Pierre F. et al; J. Med. Chem. 2011, 54, 635-654. The tested compounds in aqueous solution were added at a volume of 10 μL to a reaction mixture comprising 10 μL of assay dilution buffer (ADB; 20 mM MOPS, pH 7.2, 25 mM β-glycerol phosphate, 5 mM EGTA, 1 mM sodium orthovanadate, and 1 mM dithiothreitol), 10 μL of substrate peptide (RRRDDDSDDD, dissolved in ADB at a concentration of 1 mM), 10 μL of recombinant human CK2 (RRββ-holoenzyme, 25 ng dissolved in ADB; Millipore). Reactions were initiated by the addition of 10 μL of ATP solution (90% 75 mMMgCl2, 75 μM ATP (final ATP concentration:15 μM) dissolved in ADB; 10% [γ-33P] ATP (stock 1 mCi/100 μL; 3000 Ci/mmol (Perkin-Elmer) and maintained for 10 min at 30° C. The reactions were quenched with 100 μL of 0.75% phosphoric acid and then transferred to and filtered through a phosphor cellulose filter plate (Millipore). After washing each well five times with 0.75% phosphoric acid, the plate was dried under vacuum for 5 min and, following the addition of 15 μL of scintillation fluid to each well, the residual radioactivity was measured using a Wallac luminescence counter. The IC50 values were derived from eight concentrations of test inhibitors.

Compound `O=C(O)c1cc2c([nH]c3cc(O)ccc32)c(Nc2cccc(Cl)c2)n1` [Compound 1, 1-((3-chlorophenyl)amino)-7-hydroxy-9H-pyrido[3,4-b]indole-3-carboxylic Acid] has an IC50 (PC3 (prostate)) of 1.2 µM, an IC50 (HCT116 (colon)) of 1.6 µM and an IC50 (A375 (melanoma)) of 5.7 µM. The IC50 (H1299 (lung)) was 1.8 µM, the IC50 (MIAPaCa-2 (pancreas)) was 3.3 µM and the IC50 (HL60 (leukemia)) was 4.1 µM. The IC50 (MCF7 (breast)) was 3.2 µM, the IC50 (MDA-MB-231 (breast)) was 2.5 µM and the IC50 [1] was 0.165 µM.
